Each block holds one compound with its values, some of them ahead of it.
Target: MDM2 (Homo sapiens, UniProt Q00987)
Assay: MDM2 binding screen: displacement of fluorescent p53 peptide probe FP53 (fluorescence polarization)
Conditions: for fraction fluorescent probe displaced, Screen: initial screen; for fraction fluorescent probe displaced, Screen / fraction fluorescent probe displaced, Replicate: crude macrocycle reactions
Procedure: We screened Library 2 in 384-microwell plates by dispensing the target protein MDM2 and reporter peptide into the wells containing the macrocycle reactions.
The products were screened for displacement of a p53-based fluorescent peptide from human MDM2. Final macrocycle concentrations were 10 µM. For each macrocycle, the MDM2 binding was measured once.
One fluorescence anisotropy reading was taken with a Tecan Infinite F200 Pro fluorescence plate reader (excitation at 485 nm, emission at 535 nm) at 25 °C. Data was collected and exported using the Tecan Infinite M200 Pro instrument software. The data was analyzed by Excel (version 2016).

[1] = crude reaction of macrocycle scaffold with Acid 25, (initial screen)
[2] = crude reaction of macrocycle scaffold with Acid 25, replicate
[3] = crude reaction of macrocycle scaffold with Acid 91, (initial screen)
[4] = crude reaction of macrocycle scaffold with Acid 91, replicate

Chain of MDM2 (Q00987 whole entry): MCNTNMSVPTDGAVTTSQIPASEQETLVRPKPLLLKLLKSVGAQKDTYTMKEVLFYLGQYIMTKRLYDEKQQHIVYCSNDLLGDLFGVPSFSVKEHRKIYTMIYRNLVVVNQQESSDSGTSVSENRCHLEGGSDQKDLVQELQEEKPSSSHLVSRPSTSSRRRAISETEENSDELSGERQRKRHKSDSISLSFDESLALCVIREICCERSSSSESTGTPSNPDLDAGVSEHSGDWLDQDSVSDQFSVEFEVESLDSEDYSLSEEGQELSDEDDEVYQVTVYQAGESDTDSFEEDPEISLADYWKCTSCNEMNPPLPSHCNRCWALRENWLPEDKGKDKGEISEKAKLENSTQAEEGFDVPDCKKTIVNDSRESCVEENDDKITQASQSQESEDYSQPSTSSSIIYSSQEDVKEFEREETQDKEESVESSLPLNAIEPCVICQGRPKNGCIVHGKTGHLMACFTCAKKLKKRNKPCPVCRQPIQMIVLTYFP

fraction fluorescent probe displaced, Screen (Acid 25): 0.19
fraction fluorescent probe displaced, Replicate (Acid 25, replicate): 0.22
Compound: O=C1CCSSCCNC(=O)C2CC(NC(=O)c3ccc(Cl)cc3)CN2C(=O)C(Cc2c[nH]c3ccccc23)NC(=O)CCN1 (stereo not shown) [X B2 W D5 Acid 25]

fraction fluorescent probe displaced, Screen (Acid 14): 0.14
fraction fluorescent probe displaced, Replicate (Acid 14, replicate): 0.0465
Compound: O=C1CCSSCCNC(=O)C2(CCN(C(=O)c3ccc(Cl)s3)CC2)NC(=O)[C@H](Cc2c[nH]c3ccccc23)NC(=O)CCN1 [X B2 W D6 Acid 14]

fraction fluorescent probe displaced, Screen (Acid 25): 0.0244
fraction fluorescent probe displaced, Replicate (Acid 25, replicate): 0.0211
Compound: O=C1CCSSCCNC(=O)C2(CCN(C(=O)c3ccc(Cl)cc3)CC2)NC(=O)[C@H](Cc2c[nH]c3ccccc23)NC(=O)CCN1 [X B2 W D6 Acid 25]

fraction fluorescent probe displaced, Screen (Acid 91): 0.0563
fraction fluorescent probe displaced, Replicate (Acid 91, replicate): 0.07
Compound: O=C1CCSSCCNC(=O)C2(CCN(C(=O)C=Cc3ccccc3)CC2)NC(=O)C(Cc2c[nH]c3ccccc23)NC(=O)CCN1 (stereo not shown) [X B2 W D6 Acid 91]

fraction fluorescent probe displaced, Screen (Acid 25): 0.0569
fraction fluorescent probe displaced, Replicate (Acid 25, replicate): 0.10
Compound: O=C1CCSSCCNC(=O)C2CN(C(=O)c3ccc(Cl)cc3)CCN2C(=O)C(Cc2c[nH]c3ccccc23)NC(=O)CCN1 (stereo not shown) [X B2 W D7 Acid 25]

fraction fluorescent probe displaced, Screen (Acid 14): 0.14
fraction fluorescent probe displaced, Replicate (Acid 14, replicate): 0.15
Compound: O=C(NCC1NC(=O)C2CCCN(C2)C(=O)CCSSCCNC(=O)C(Cc2ccccc2)NC1=O)c1ccc(Cl)s1 (stereo not shown) [X B4 D3 F Acid 14]

fraction fluorescent probe displaced, Screen (Acid 25): 0.09
fraction fluorescent probe displaced, Replicate (Acid 25, replicate): 0.12
Compound: O=C(NC[C@@H]1NC(=O)[C@H]2CCCN(C2)C(=O)CCSSCCNC(=O)[C@H](Cc2ccccc2)NC1=O)c1ccc(Cl)cc1 [X B4 D3 F Acid 25]

fraction fluorescent probe displaced, Screen (Acid 14): 0.63
fraction fluorescent probe displaced, Replicate (Acid 14, replicate): 0.58
Compound: O=C(NC[C@@H]1NC(=O)[C@H]2CCCN(C2)C(=O)CCSSCCNC(=O)[C@H](Cc2c[nH]c3ccccc23)NC1=O)c1ccc(Cl)s1 [X B4 D3 W Acid 14]

fraction fluorescent probe displaced, Screen (Acid 91): 0.81
fraction fluorescent probe displaced, Replicate (Acid 91, replicate): 0.49
Compound: O=C(C=Cc1ccccc1)NCC1NC(=O)C2CCCN(C2)C(=O)CCSSCCNC(=O)C(Cc2c[nH]c3ccccc23)NC1=O (stereo not shown) [X B4 D3 W Acid 91]

fraction fluorescent probe displaced, Screen (Acid 14): 0.11
fraction fluorescent probe displaced, Replicate (Acid 14, replicate): 0.0211
Compound: O=C(N[C@H]1C[C@H]2C(=O)N[C@@H](Cc3c[nH]c4ccccc34)C(=O)NCCSSCCC(=O)N3CCC[C@@H](C3)C(=O)N2C1)c1ccc(Cl)s1 [X B4 D5 W Acid 14]

fraction fluorescent probe displaced (crude reaction of macrocycle scaffold with Acid 14, (initial screen)): 0.25
fraction fluorescent probe displaced (crude reaction of macrocycle scaffold with Acid 14, replicate): 0.12
Compound: O=C1NC2(CCN(C(=O)c3ccc(Cl)s3)CC2)C(=O)N[C@@H](Cc2ccccc2)C(=O)NCCSSCCC(=O)N2CCC[C@H]1C2 [X B4 D6 F + Acid 14]

fraction fluorescent probe displaced [1]: 0.0462
fraction fluorescent probe displaced [2]: 0.10
Compound: O=C1NC2(CCN(C(=O)c3ccc(Cl)cc3)CC2)C(=O)N[C@@H](Cc2ccccc2)C(=O)NCCSSCCC(=O)N2CCC[C@H]1C2 [X B4 D6 F + Acid 25]

fraction fluorescent probe displaced [3]: 0.12
fraction fluorescent probe displaced [4]: 0.12
Compound: O=C1NC2(CCN(C(=O)/C=C/c3ccccc3)CC2)C(=O)N[C@@H](Cc2ccccc2)C(=O)NCCSSCCC(=O)N2CCC[C@H]1C2 [X B4 D6 F + Acid 91]

fraction fluorescent probe displaced, Screen (Acid 25): 0.38
fraction fluorescent probe displaced, Replicate (Acid 25, replicate): 0.25
Compound: O=C1NC2(CCN(C(=O)c3ccc(Cl)cc3)CC2)C(=O)N[C@@H](Cc2c[nH]c3ccccc23)C(=O)NCCSSCCC(=O)N2CCC[C@H]1C2 [X B4 D6 W Acid 25]

fraction fluorescent probe displaced, Screen (Acid 91): 0.16
fraction fluorescent probe displaced, Replicate (Acid 91, replicate): 0.09
Compound: O=C1NC2(CCN(C(=O)/C=C/c3ccccc3)CC2)C(=O)N[C@@H](Cc2c[nH]c3ccccc23)C(=O)NCCSSCCC(=O)N2CCC[C@H]1C2 [X B4 D6 W Acid 91]

fraction fluorescent probe displaced [1]: 0.15
fraction fluorescent probe displaced [2]: 0.10
Compound: O=C1NCCSSCCC(=O)N2CCCC(C2)C(=O)N2CCN(C(=O)c3ccc(Cl)cc3)CC2C(=O)NC1Cc1ccccc1 (stereo not shown) [X B4 D7 F + Acid 25]

fraction fluorescent probe displaced, Screen (Acid 25): 0.32
fraction fluorescent probe displaced, Replicate (Acid 25, replicate): 0.17
Compound: O=C1NCCSSCCC(=O)N2CCCC(C2)C(=O)N2CCN(C(=O)c3ccc(Cl)cc3)CC2C(=O)NC1Cc1c[nH]c2ccccc12 (stereo not shown) [X B4 D7 W Acid 25]

fraction fluorescent probe displaced, Screen (Acid 14): 0.08
fraction fluorescent probe displaced, Replicate (Acid 14, replicate): 0.10
Compound: O=C(NC[C@@H]1NC(=O)[C@H](Cc2ccccc2)NC(=O)[C@H]2CCCN(C2)C(=O)CCSSCCNC1=O)c1ccc(Cl)s1 [X B4 F D3 Acid 14]

fraction fluorescent probe displaced, Screen (Acid 25): 0.09
fraction fluorescent probe displaced, Replicate (Acid 25, replicate): 0.12
Compound: O=C(NC[C@@H]1NC(=O)[C@H](Cc2ccccc2)NC(=O)[C@H]2CCCN(C2)C(=O)CCSSCCNC1=O)c1ccc(Cl)cc1 [X B4 F D3 Acid 25]

fraction fluorescent probe displaced, Screen (Acid 91): 0.03
fraction fluorescent probe displaced, Replicate (Acid 91, replicate): -0.00827
Compound: O=C(C=Cc1ccccc1)NCC1NC(=O)C(Cc2ccccc2)NC(=O)C2CCCN(C2)C(=O)CCSSCCNC1=O (stereo not shown) [X B4 F D3 Acid 91]

fraction fluorescent probe displaced, Screen (Acid 25): 0.0569
fraction fluorescent probe displaced, Replicate (Acid 25, replicate): 0.12
Compound: O=C(NC1CC2C(=O)NCCSSCCC(=O)N3CCCC(C3)C(=O)NC(Cc3ccccc3)C(=O)N2C1)c1ccc(Cl)cc1 (stereo not shown) [X B4 F D5 Acid 25]

fraction fluorescent probe displaced, Screen (Acid 91): -0.05
fraction fluorescent probe displaced, Replicate (Acid 91, replicate): -0.0333
Compound: O=C(C=Cc1ccccc1)NC1CC2C(=O)NCCSSCCC(=O)N3CCCC(C3)C(=O)NC(Cc3ccccc3)C(=O)N2C1 (stereo not shown) [X B4 F D5 Acid 91]

fraction fluorescent probe displaced [1]: 0.09
fraction fluorescent probe displaced [2]: 0.17
Compound: O=C1NC(Cc2ccccc2)C(=O)NC2(CCN(C(=O)c3ccc(Cl)cc3)CC2)C(=O)NCCSSCCC(=O)N2CCCC1C2 (stereo not shown) [X B4 F D6 + Acid 25]

fraction fluorescent probe displaced [3]: 0.08
fraction fluorescent probe displaced [4]: 0.0168
Compound: O=C1N[C@@H](Cc2ccccc2)C(=O)NC2(CCN(C(=O)/C=C/c3ccccc3)CC2)C(=O)NCCSSCCC(=O)N2CCC[C@H]1C2 [X B4 F D6 + Acid 91]

fraction fluorescent probe displaced, Screen (Acid 25): 0.09
fraction fluorescent probe displaced, Replicate (Acid 25, replicate): 0.10
Compound: O=C1NC(Cc2ccccc2)C(=O)N2CCN(C(=O)c3ccc(Cl)cc3)CC2C(=O)NCCSSCCC(=O)N2CCCC1C2 (stereo not shown) [X B4 F D7 Acid 25]

fraction fluorescent probe displaced, Screen (Acid 91): 0.00268
fraction fluorescent probe displaced, Replicate (Acid 91, replicate): -0.00827
Compound: O=C1NC(Cc2ccccc2)C(=O)N2CCN(C(=O)C=Cc3ccccc3)CC2C(=O)NCCSSCCC(=O)N2CCCC1C2 (stereo not shown) [X B4 F D7 Acid 91]

fraction fluorescent probe displaced, Screen (Acid 14): 0.11
fraction fluorescent probe displaced, Replicate (Acid 14, replicate): 0.10
Compound: O=C(NC[C@@H]1NC(=O)[C@H](Cc2c[nH]c3ccccc23)NC(=O)[C@H]2CCCN(C2)C(=O)CCSSCCNC1=O)c1ccc(Cl)s1 [X B4 W D3 Acid 14]

fraction fluorescent probe displaced, Screen (Acid 25): 0.09
fraction fluorescent probe displaced, Replicate (Acid 25, replicate): 0.22
Compound: O=C(NCC1NC(=O)C(Cc2c[nH]c3ccccc23)NC(=O)C2CCCN(C2)C(=O)CCSSCCNC1=O)c1ccc(Cl)cc1 (stereo not shown) [X B4 W D3 Acid 25]

fraction fluorescent probe displaced, Screen (Acid 91): 0.16
fraction fluorescent probe displaced, Replicate (Acid 91, replicate): 0.09
Compound: O=C(/C=C/c1ccccc1)NC[C@@H]1NC(=O)[C@H](Cc2c[nH]c3ccccc23)NC(=O)[C@H]2CCCN(C2)C(=O)CCSSCCNC1=O [X B4 W D3 Acid 91]

fraction fluorescent probe displaced, Screen (Acid 14): 0.08
fraction fluorescent probe displaced, Replicate (Acid 14, replicate): -0.03
Compound: O=C(N[C@H]1C[C@H]2C(=O)NCCSSCCC(=O)N3CCC[C@@H](C3)C(=O)N[C@@H](Cc3c[nH]c4ccccc34)C(=O)N2C1)c1ccc(Cl)s1 [X B4 W D5 Acid 14]

fraction fluorescent probe displaced, Screen (Acid 25): 0.15
fraction fluorescent probe displaced, Replicate (Acid 25, replicate): 0.20
Compound: O=C(NC1CC2C(=O)NCCSSCCC(=O)N3CCCC(C3)C(=O)NC(Cc3c[nH]c4ccccc34)C(=O)N2C1)c1ccc(Cl)cc1 (stereo not shown) [X B4 W D5 Acid 25]

fraction fluorescent probe displaced, Screen (Acid 91): 0.0563
fraction fluorescent probe displaced, Replicate (Acid 91, replicate): 0.12
Compound: O=C(C=Cc1ccccc1)NC1CC2C(=O)NCCSSCCC(=O)N3CCCC(C3)C(=O)NC(Cc3c[nH]c4ccccc34)C(=O)N2C1 (stereo not shown) [X B4 W D5 Acid 91]

fraction fluorescent probe displaced, Screen (Acid 14): 0.08
fraction fluorescent probe displaced, Replicate (Acid 14, replicate): 0.22
Compound: O=C1N[C@@H](Cc2c[nH]c3ccccc23)C(=O)NC2(CCN(C(=O)c3ccc(Cl)s3)CC2)C(=O)NCCSSCCC(=O)N2CCC[C@H]1C2 [X B4 W D6 Acid 14]

fraction fluorescent probe displaced, Screen (Acid 25): 0.22
fraction fluorescent probe displaced, Replicate (Acid 25, replicate): 0.20
Compound: O=C1N[C@@H](Cc2c[nH]c3ccccc23)C(=O)NC2(CCN(C(=O)c3ccc(Cl)cc3)CC2)C(=O)NCCSSCCC(=O)N2CCC[C@H]1C2 [X B4 W D6 Acid 25]

fraction fluorescent probe displaced, Screen (Acid 14): 0.14
fraction fluorescent probe displaced, Replicate (Acid 14, replicate): 0.25
Compound: O=C1NC(Cc2c[nH]c3ccccc23)C(=O)N2CCN(C(=O)c3ccc(Cl)s3)CC2C(=O)NCCSSCCC(=O)N2CCCC1C2 (stereo not shown) [X B4 W D7 Acid 14]

fraction fluorescent probe displaced, Screen (Acid 25): 0.25
fraction fluorescent probe displaced, Replicate (Acid 25, replicate): 0.17
Compound: O=C1NC(Cc2c[nH]c3ccccc23)C(=O)N2CCN(C(=O)c3ccc(Cl)cc3)CC2C(=O)NCCSSCCC(=O)N2CCCC1C2 (stereo not shown) [X B4 W D7 Acid 25]

fraction fluorescent probe displaced, Screen (Acid 14): -0.00483
fraction fluorescent probe displaced, Replicate (Acid 14, replicate): 0.12
Compound: O=C1CCSSCCNC(=O)C(Cc2ccccc2)NC(=O)C(CNC(=O)c2ccc(Cl)s2)NC(=O)c2cccc(c2)CN1 (stereo not shown) [X B5 D3 F Acid 14]

fraction fluorescent probe displaced, Screen (Acid 25): 0.0244
fraction fluorescent probe displaced, Replicate (Acid 25, replicate): 0.10
Compound: O=C1CCSSCCNC(=O)[C@H](Cc2ccccc2)NC(=O)[C@H](CNC(=O)c2ccc(Cl)cc2)NC(=O)c2cccc(c2)CN1 [X B5 D3 F Acid 25]

— paper PMC9250534, “Synthesis and direct assay of large macrocycle diversities by combinatorial late-stage modification at picomole scale” (Nature Communications, 2022)
